Experimental findings from BindingDB's records for doi:10.1111/cbdd.12751 (Shandong University, 2016) are described below.

pIC50: −log10 of the molar value.

This assay concerns the target Gag-Pol polyprotein (Human immunodeficiency virus type 1 group M subtype B (isolate NY5), UniProt P12497). Description: HIV-1 RT Inhibition Assay. Conditions: 37 °C. Here is the method: A reverse transcriptase (RT) assay kit produced by Roche was selected for the RT inhibition assay. All the reagents for performing the RT reaction came with the kit, and the ELISA procedures for RT inhibition assay were carried out following the description in the kit protocol. Briefly, the reaction mixture containing template/primer complex, viral nucleotides (dNTPs), and RT in the incubation buffer with or without inhibitors was incubated for 1 h at 37 °C. After that, the reaction mixture was transferred to a streptavidincoated microtiter plate and incubated for another 1 h at 37 °C to make sure that retranscriptional cDNA chain consisted of biotin-labeled dNTPs bound to streptavidin. Then, unbound dNTPs were removed using washing buffer and anti-DIG-POD working solution was added. After incubation for 1 h at 37 °C, the DIG-labeled dNTPs incorporated into cDNA were bound to the anti-DIG-POD antibody. The unbound anti-DIG-PODs were removed.

On to `Cc1cc(C#N)cc(C)c1Oc1nc(Nc2ccc(C#N)cc2)nc(N)c1Br`, for which the negative-log IC50 (pIC50) (in general, −log10 of the IC50, conventionally taken in molar units) is 6.43.

For the molecule `Cc1ccnc2c1NC(=O)c1cccnc1N2C1CC1` [BI-RG-587], the negative logarithm of the IC50 (pIC50) is 6.16.

`NS(=O)(=O)c1ccc(NC(=O)CSc2nc3ncccc3n2-c2ccc(C3CC3)c3ccccc23)c(Br)c1` [N-(2-Bromo-4-sulfonamido-phenyl)-2-(1-(4-cyclopropylnaphthalen-1-yl)-1H-imidazo[4,5-b]pyridin-2-ylthio)acetamide (12)] showed a negative logarithm of the IC50 (pIC50) of 5.82.
